Assay results reported in ChEMBL document CHEMBL1201862, “PubChem BioAssay data set” (2004).
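Results reflect a 48-hour exposure of cells in 96-well plates to compound at five concentrations. Here, GI50 denotes the concentration required for 50% inhibition of growth.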 The source made the active and inactive calls. No stated cut-off is given here; in the data, active = GI50 up to about 1.1 µM and inactive = higher.

Experiments:
Assay in all cases: NCI tumour cell line growth inhibition, 48 h
[1] = test system: NCI/ADR-RES
[2] = test system: TK-10
[3] = test system: 786-0
[4] = test system: OVCAR-3
[5] = test system: SF-295
[6] = test system: UO-31
[7] = test system: HOP-92
[8] = test system: SK-OV-3
[9] = test system: UACC-62
[10] = test system: SF-268
[11] = test system: PC-3
[12] = test system: KM12
[13] = test system: NCI-H522
[14] = test system: HT-29
[15] = test system: RPMI-8226
[16] = test system: NCI-H23
[17] = test system: Hs-578T
[18] = test system: SK-MEL-28
[19] = test system: HCC 2998

Measured: GI50

N#Cc1cc(-c2nc3c(F)cccc3s2)ccc1N
inactive: [1] > 100 µM | [2] 4.26 µM | [3] > 100 µM | [4] 96.4 µM | [5] > 100 µM | [6] > 100 µM | [7] 3.52 µM | [8] > 100 µM | [9] > 100 µM | [10] > 100 µM | [11] > 100 µM | [12] 65.3 µM | [13] > 100 µM | [14] > 100 µM | [15] > 100 µM | [16] > 100 µM | [17] > 100 µM

COc1cc(/C=N\N(C)C)cc(/C=N/N(C)C)c1O
inactive: [1] 25.4 µM | [2] 55.7 µM | [3] 24.4 µM | [4] 17.3 µM | [5] 2.9 µM | [6] 22 µM | [7] 6.14 µM | [8] 15.5 µM | [9] 28.1 µM | [10] 38.5 µM | [11] 16.4 µM | [12] > 100 µM | [13] 65.9 µM | [14] 10.6 µM | [15] 19.6 µM | [18] 19.3 µM | [16] > 100 µM | [17] 3.53 µM

O=[N+]([O-])c1cccc(CSc2nc(O)c3nc[nH]c3n2)c1
inactive: [1] > 100 µM | [2] > 100 µM | [3] > 100 µM | [4] > 100 µM | [5] > 100 µM | [6] > 100 µM | [7] > 100 µM | [8] > 100 µM | [9] 50.1 µM | [10] > 100 µM | [11] > 100 µM | [12] > 100 µM | [13] 76.6 µM | [14] > 100 µM | [15] > 100 µM | [18] > 100 µM | [16] > 100 µM | [17] 87.1 µM

CC(=O)Nc1ncc2c(n1)-c1ccccc1OC2
inactive: [1] > 100 µM | [2] > 100 µM | [3] 65.9 µM | [4] > 100 µM | [5] > 100 µM | [6] > 100 µM | [7] > 100 µM | [8] > 100 µM | [9] > 100 µM | [10] 80.7 µM | [11] > 100 µM | [12] > 100 µM | [13] > 100 µM | [14] > 100 µM | [15] > 100 µM | [16] > 100 µM | [17] 19.5 µM

COc1cccc(C23CCN(C)C(CC(O)C2)C3)c1OC (centres undefined)
inactive: [1] > 100 µM | [2] > 100 µM | [3] > 100 µM | [4] > 100 µM | [5] > 100 µM | [6] > 100 µM | [7] > 100 µM | [8] > 100 µM | [9] > 100 µM | [10] > 100 µM | [11] > 100 µM | [12] > 100 µM | [13] > 100 µM | [14] > 100 µM | [15] > 100 µM | [18] > 100 µM | [16] > 100 µM | [17] > 100 µM

Nc1cc([N+](=O)[O-])ccc1C(=O)N1CCC[C@H]1CO
inactive: [1] > 100 µM | [2] > 100 µM | [3] > 100 µM | [5] > 100 µM | [6] > 100 µM | [7] > 100 µM | [8] > 100 µM | [9] > 100 µM | [10] > 100 µM | [11] > 100 µM | [12] > 100 µM | [13] > 100 µM | [14] > 100 µM | [15] > 100 µM | [18] > 100 µM | [16] > 100 µM | [17] 64.1 µM

CN(Cc1cnc2nc(N)nc(N)c2n1)c1ccc(C(=O)NC(CCC(=O)NC(P(=O)(O)O)P(=O)(O)O)C(=O)O)cc1 (centres undefined)
inactive: [1] 40.8 µM | [2] > 100 µM | [3] 7.31 µM | [4] > 100 µM | [5] 13.1 µM | [6] 78.2 µM | [7] > 100 µM | [9] > 100 µM | [10] 20.3 µM | [11] 5.62 µM | [12] 8.34 µM | [13] 29 µM | [14] 6.47 µM | [15] 52.4 µM | [18] 83 µM | [16] 50.8 µM | [17] > 100 µM

Cc1cccc(/C=N/NC(=S)NC(C)(C)C)n1
inactive: [1] 33.7 µM | [2] 75.2 µM | [3] 76.9 µM | [4] 30.8 µM | [5] > 100 µM | [6] 62.4 µM | [8] > 100 µM | [19] 56.1 µM | [9] 66.4 µM | [10] 41 µM | [11] 23.7 µM | [12] > 100 µM | [13] 14.5 µM | [14] 3.12 µM | [15] 32.9 µM | [18] > 100 µM | [16] > 100 µM | [17] > 100 µM

NCCSC(c1ccccc1)c1ccccc1
inactive: [1] 31.3 µM | [2] 16.9 µM | [3] 17.5 µM | [4] 19.1 µM | [5] 18.2 µM | [6] 15 µM | [7] 10.6 µM | [8] 22.5 µM | [9] 17 µM | [10] 26.6 µM | [11] 21.8 µM | [12] 19.7 µM | [13] 19.1 µM | [14] 17.7 µM | [15] 16 µM | [18] 18.6 µM | [16] 37.2 µM | [17] 24.2 µM

CC(C)c1cc(C(C)C)c(S(=O)(=O)N/N=C2\CC3CCC2(C)C3(C)C)c(C(C)C)c1 (centres undefined)
inactive: [1] 20.8 µM | [2] 38.8 µM | [3] 28.4 µM | [4] 33.7 µM | [5] 10.4 µM | [6] 30.4 µM | [8] 55.3 µM | [19] 23.3 µM | [9] 37.3 µM | [10] 34.9 µM | [11] 18.3 µM | [12] 36.1 µM | [13] 5.37 µM | [14] 14.1 µM | [15] 3.08 µM | [18] 31.8 µM | [16] 17.4 µM | [17] 29.7 µM

S=c1c2cn[nH]c2nc2scc(-c3ccc(Cl)cc3)n12
inactive: [1] 13.8 µM | [2] 10.6 µM | [3] 14.1 µM | [4] 20.1 µM | [5] > 10 µM | [6] 6.24 µM | [8] 18.1 µM | [19] 15.4 µM | [9] 16.3 µM | [10] 16.6 µM | [11] 12.9 µM | [12] 11.1 µM | [13] 24.9 µM | [14] 16.7 µM | [15] 23.6 µM | [18] 18.1 µM | [16] 13.8 µM | [17] 8.73 µM
